Results from patent publication US5643872A, “Cyclic anti-aggregatory peptides” (SmithKline Beecham Corporation, priority 1994, dated 1997).
Read-outs that look alike come from different tables or passages of the source. Square brackets hold non-standard residues; d marks the D form. Peptide text beside a SMILES is read from it.

What was measured:
[1] = amide bond, DMF
[2] = target: dog platelets (Canis lupus familiaris, UniProt A0A8I3N5G5+A0A8I3PMU9); conditions: read-out: IC50 for the aggregation of dog platelets stimulated by ADP; agonist ADP; peptides added 3 min prior to the agonist; light transmittance 5 min after agonist
Protocol: Inhibition of Platelet Aggregation
Blood was collected (citrated to prevent coagulation) from, naive, adult mongrel dogs. Platelet rich plasma, PRP, was prepared by centrifugation at 150×g for 10 min at room temperature. Washed platelets were prepared by centrifuging PRP at 800×g for 10 min. The cell pellet thus obtained was washed twice in Tyrode's buffer (pH 6.5) without Ca^++ and resuspended in Tyrode's buffer (pH 7.4) containing 1.8 mM Ca^++ at […]. Peptides were added 3 min prior to the agonist in all assays of platelet aggregation. Final agonist concentrations were 0.1 unit/ml thrombin and […] (Sigma). Aggregation was monitored in a Chrono-Log Lumi-Aggregometer. Light transmittance 5 min after addition of the agonist was used to calculate percent aggregation according to the formula % aggregation=[(90-CR)[…](90-10)]×100, where CR is the chart reading, 90 is the baseline, and 10 is the PRP blank reading. IC50 's were determined by plotting [% inhibition of aggregation] vs. [concentration of peptide]. Peptides were assayed at […] and diluted sequentially by a factor of 2 to establish a suitable dose response curve.

[3] = the molecule shown is the open-chain precursor, 20-membered ring, BOP/DIEA, resin, with chain assembly

Chain of dog platelets (A0A8I3N5G5 1-1047): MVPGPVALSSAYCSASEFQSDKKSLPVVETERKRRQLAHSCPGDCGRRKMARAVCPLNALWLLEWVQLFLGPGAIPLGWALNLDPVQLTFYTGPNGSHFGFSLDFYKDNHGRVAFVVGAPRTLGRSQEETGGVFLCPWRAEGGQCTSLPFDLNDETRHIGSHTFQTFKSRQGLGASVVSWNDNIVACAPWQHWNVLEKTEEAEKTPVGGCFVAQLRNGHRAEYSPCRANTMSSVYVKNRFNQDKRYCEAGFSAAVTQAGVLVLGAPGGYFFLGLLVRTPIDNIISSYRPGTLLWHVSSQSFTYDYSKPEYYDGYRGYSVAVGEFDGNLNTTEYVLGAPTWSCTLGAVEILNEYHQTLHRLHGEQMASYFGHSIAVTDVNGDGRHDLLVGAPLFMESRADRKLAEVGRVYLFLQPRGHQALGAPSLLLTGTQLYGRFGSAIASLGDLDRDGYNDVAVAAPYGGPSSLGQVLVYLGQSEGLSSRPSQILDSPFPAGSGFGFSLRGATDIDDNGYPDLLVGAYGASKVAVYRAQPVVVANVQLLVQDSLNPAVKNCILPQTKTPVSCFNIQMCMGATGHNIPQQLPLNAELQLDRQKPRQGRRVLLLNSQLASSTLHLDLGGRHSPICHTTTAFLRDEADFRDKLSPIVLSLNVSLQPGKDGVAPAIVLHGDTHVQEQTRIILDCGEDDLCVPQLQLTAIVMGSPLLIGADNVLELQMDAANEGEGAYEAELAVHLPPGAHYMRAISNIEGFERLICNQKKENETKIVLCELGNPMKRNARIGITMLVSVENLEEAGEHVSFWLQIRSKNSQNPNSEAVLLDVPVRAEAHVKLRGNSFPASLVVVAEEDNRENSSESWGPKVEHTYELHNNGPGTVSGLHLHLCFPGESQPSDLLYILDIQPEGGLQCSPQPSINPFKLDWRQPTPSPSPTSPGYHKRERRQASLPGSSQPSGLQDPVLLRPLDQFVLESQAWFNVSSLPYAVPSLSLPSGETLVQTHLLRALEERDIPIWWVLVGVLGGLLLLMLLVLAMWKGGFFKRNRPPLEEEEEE
Chain of dog platelets (A0A8I3PMU9 1-919): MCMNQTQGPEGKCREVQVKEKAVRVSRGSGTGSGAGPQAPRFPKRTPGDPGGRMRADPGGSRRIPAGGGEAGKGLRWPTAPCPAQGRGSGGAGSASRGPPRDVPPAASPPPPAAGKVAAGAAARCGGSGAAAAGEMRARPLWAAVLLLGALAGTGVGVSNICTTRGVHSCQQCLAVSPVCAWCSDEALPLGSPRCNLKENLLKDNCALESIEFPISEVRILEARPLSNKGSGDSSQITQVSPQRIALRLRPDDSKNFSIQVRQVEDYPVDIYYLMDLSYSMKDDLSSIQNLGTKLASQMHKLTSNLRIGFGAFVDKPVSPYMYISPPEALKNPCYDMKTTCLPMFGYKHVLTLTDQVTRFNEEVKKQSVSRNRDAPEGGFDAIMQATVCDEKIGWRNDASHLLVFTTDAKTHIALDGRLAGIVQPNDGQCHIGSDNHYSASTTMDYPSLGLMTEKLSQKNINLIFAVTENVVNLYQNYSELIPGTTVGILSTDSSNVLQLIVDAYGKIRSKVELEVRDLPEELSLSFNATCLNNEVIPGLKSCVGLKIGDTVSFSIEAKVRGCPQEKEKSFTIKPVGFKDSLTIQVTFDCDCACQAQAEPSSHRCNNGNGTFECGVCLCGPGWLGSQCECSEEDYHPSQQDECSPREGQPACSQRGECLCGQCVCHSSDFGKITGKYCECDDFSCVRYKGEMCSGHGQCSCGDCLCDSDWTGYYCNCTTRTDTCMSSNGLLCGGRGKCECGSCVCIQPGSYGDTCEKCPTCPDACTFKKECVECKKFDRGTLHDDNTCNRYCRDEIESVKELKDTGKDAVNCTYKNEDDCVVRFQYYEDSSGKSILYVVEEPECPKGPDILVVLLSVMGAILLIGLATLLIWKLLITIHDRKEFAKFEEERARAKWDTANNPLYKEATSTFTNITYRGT

Compound: COc1cc(C)c(S(=O)(=O)NC(=N)NCCC[C@@H]2NC(=O)[C@@H]3CCCN3C(=O)[C@@H](Cc3ccccc3)NC(=O)[C@H](CC(=O)OC(C)(C)C)NC(=O)CNC(=O)[C@H](CCCNC(=N)NS(=O)(=O)c3c(C)cc(OC)c(C)c3C)NC(=O)[C@@H]3CCCN3C(=O)[C@@H](Cc3ccccc3)NC(=O)[C@H](CC(=O)OC(C)(C)C)NC(=O)CNC2=O)c(C)c1C
- ring closure, crude yield ([1]; from H-Asp(OtBu)-dPhe-Pro-Arg(Mtr)-Gly-Asp(OtBu)-dPhe-Pro-Arg(Mtr)-Gly-OH, 30-membered ring, PPA/NMM, 0.4 mM): 100%

Compound: COc1cc(C)c(S(=O)(=O)NC(=N)NCCC[C@@H]2NC(=O)[C@H](Cc3ccccc3)NC(=O)[C@H](CC(=O)OC(C)(C)C)NC(=O)CNC(=O)[C@H](CCCNC(=N)NS(=O)(=O)c3c(C)cc(OC)c(C)c3C)NC(=O)[C@H](Cc3ccccc3)NC(=O)[C@H](CC(=O)OC(C)(C)C)NC(=O)CNC2=O)c(C)c1C
- ring closure, crude yield ([1]; from H-Asp(OtBu)-Phe-Arg(Mtr)-Gly-Asp(OtBu)-Phe-Arg(Mtr)-Gly-OH, 24-membered ring, PPA/NMM, 0.4 mM): 100%

Compound: COc1cc(C)c(S(=O)(=O)NC(=N)NCCC[C@@H]2NC(=O)[C@H](Cc3ccccc3)NC(=O)[C@H](CC(=O)OC(C)(C)C)NC(=O)CNC(=O)[C@H](CCCNC(=N)NS(=O)(=O)c3ccc(C)cc3)N(C)C(=O)[C@H](Cc3ccccc3)NC(=O)[C@H](CC(=O)OC(C)(C)C)NC(=O)CNC2=O)c(C)c1C
- ring closure, crude yield ([1]; from H-Asp(OtBu)-Phe-MeArg(Tos)-Gly-Asp(OtBu)-Phe-Arg(Mtr)-Gly-OH, 24-membered ring, PPA/NMM, 0.4 mM): 95%

Compound: N=C(N)NCCC[C@@H]1NC(=O)[C@@H]2CCCN2C(=O)[C@@H](Cc2ccccc2)NC(=O)[C@H](CC(=O)O)NC(=O)CNC(=O)[C@H](CCCNC(=N)N)NC(=O)[C@@H]2CCCN2C(=O)[C@@H](Cc2ccccc2)NC(=O)[C@H](CC(=O)O)NC(=O)CNC1=O [Example 22, cyclo-(1,10)-Pro-Arg-Gly-Asp-D-Phe-Pro-Arg-Gly-Asp-D-Phe] (cyclo(RGD[dF]PRGD[dF]P))
- IC50 [2]: > 200 µM

Compound: N=C(N)NCCC[C@@H]1NC(=O)CNC(=O)[C@@H]2CCCN2C(=O)[C@H]2CCCN2C(=O)[C@H](CC(=O)O)NC(=O)CNC1=O [Example 24, cyclo-(1,6)-Pro-Gly-Arg-Gly-Asp-D-Pro] (cyclo(RGD[dP]PG))
- IC50 [2]: > 200 µM

Compound: N=C(N)NCCC[C@@H]1NC(=O)CNC(=O)[C@@H]2CCCN2C(=O)[C@H](CO)NC(=O)[C@H](CC(=O)O)NC(=O)CNC1=O [Example 25, cyclo-(1,6)-Gly-Arg-Gly-Asp-Ser-Pro]
- IC50 [2]: > 200 µM

Compound: C[C@H]1NC(=O)[C@H](CO)NC(=O)[C@H](CC(=O)O)NC(=O)CNC(=O)[C@H](CCCNC(=N)N)NC1=O [Example 28, cyclo-(1,5)-D-Ala-Arg-Gly-Asp-Ser] (cyclo(RGDS[dA]))
- IC50 [2]: > 200 µM

Compound: COc1cc(C)c(S(=O)(=O)NC(=N)NCCC[C@@H]2NC(=O)[C@@H]3CCCN3C(=O)[C@@H](Cc3ccccc3)NC(=O)CNC(=O)[C@H](CC(=O)OC(C)(C)C)NC(=O)CNC2=O)c(C)c1C [cyclo(1,6)-Asp(O-t-Bu)-Gly-D-Phe-Arg(Tos)-Gly]
- ring closure, crude yield ([1]; from H-Asp(OtBu)-Gly-dPhe-Pro-Arg(Mtr)-Gly-OH, 18-membered ring, PPA/NMM, 0.5 mM): 84%

Compound: COc1cc(C)c(S(=O)(=O)NC(=N)NCCC[C@@H]2NC(=O)[C@H](C)NC(=O)[C@@H](COCc3ccccc3)NC(=O)[C@H](CC(=O)OC(C)(C)C)NC(=O)CNC2=O)c(C)c1C [cyclo-(1,5)-Ala-Arg(Mtr)-Gly-Asp(O-t-Bu)-D-Ser(Bzl)]
- ring closure, crude yield ([1]; from H-Asp(OtBu)-dSer(Bzl)-Ala-Arg(Mtr)-Gly-OH, 15-membered ring, PPA/NMM, 0.4 mM): 67%

Compound: Cc1ccc(S(=O)(=O)NC(=N)NCCC[C@@H]2NC(=O)[C@@H](C)NC(=O)[C@H](COCc3ccccc3)NC(=O)[C@H](CC(=O)OCc3ccccc3)NC(=O)CNC2=O)cc1 [cyclo-(1,5)-D-Ala-Arg(Tos)-Gly-Asp(Bzl)-Ser(Bzl)]
- ring closure, crude yield ([1]; from H-Asp(Bzl)-Ser(Bzl)-dAla-Arg(Tos)-Gly-OH, 15-membered ring, PPA/NMM, 0.4 mM): 67%

Compound: COc1cc(C)c(S(=O)(=O)NC(=N)NCCC[C@@H]2NC(=O)CNC(=O)[C@@H]3CCCN3C(=O)[C@H](COCc3ccccc3)NC(=O)[C@H](CC(=O)OC(C)(C)C)NC(=O)CNC2=O)c(C)c1C [cyclo-(1,6)-Gly-Arg-Gly-Asp-Ser-Pro]
- ring closure, crude yield ([1]; from H-Asp(OtBu)-Ser(Bzl)-Pro-Gly-Arg(Mtr)-Gly-OH, 18-membered ring, PPA/NMM, 0.4 mM): 88%

Compound: COc1cc(C)c(S(=O)(=O)NC(=N)NCCC[C@@H]2NC(=O)[C@@H]3CCCN3C(=O)CNC(=O)[C@H]3CCCN3C(=O)[C@H](CC(=O)OC(C)(C)C)NC(=O)CNC2=O)c(C)c1C [cyclo-(1,6)-Gly-Pro-Arg-Gly-Asp-D-Pro]
- ring closure, crude yield ([1]; from H-Asp(OtBu)-dPro-Gly-Pro-Arg(Mtr)-Gly-OH, 18-membered ring, PPA/NMM, 0.4 mM): 42%

Compound: Cc1ccc(S(=O)(=O)NC(=N)NCCC[C@@H]2NC(=O)[C@@H]3CCCN3C(=O)[C@H]3CCCN3C(=O)CNC(=O)[C@H](CC(=O)OC(C)(C)C)NC(=O)CNC2=O)cc1 [cyclo-(1,6)-Pro-Arg(Tos)-Gly-Asp(O-t-Bu)-Gly-D-Pro]
- ring closure, crude yield ([1]; from H-Asp(OtBu)-Gly-dPro-Pro-Arg(Tos)-Gly-OH, 18-membered ring, PPA/NMM, 0.57 mM): 63%

Compound: COc1cc(C)c(S(=O)(=O)NC(=N)NCCC[C@@H]2NC(=O)CNC(=O)[C@@H]3CCCN3C(=O)[C@H]3CCCN3C(=O)[C@H](CC(=O)OC(C)(C)C)NC(=O)CNC2=O)c(C)c1C [cyclo-(1,6)-Pro-Gly-Arg(Mtr)-Gly-Asp(O-t-Bu)-D-Pro]
- ring closure, crude yield ([1]; from H-Asp(OtBu)-dPro-Pro-Gly-Arg(Mtr)-Gly-OH, 18-membered ring, PPA/NMM, 0.37 mM): 31%

Compound: H-Gly-Arg(Tos)-Gly-Asp(Bzl)-Ser(Bzl)-Glu-BHA-resin
- ring closure, crude yield [1, 3]: 94%

Compound: H-Gly-MeArg(Tos)-Gly-Asp(Bzl)-Ser(Bzl)-Glu-BHA-resin
- ring closure, crude yield [1, 3]: 100%
